# According to patent US8618046B2, “Treatment of atherosclerosis with cholesterol ester transport protein mimotopes” (Affiris AG, priority 2007, dated 2013):
# Entries after “also recorded” stand apart in the source; their conditions may differ.
# Tested on: monoclonal antibody “Frida”
# Experiment: In vitro inhibition (competition) ELISA with mAb Frida on coated original CETP epitope
# Assay type: binding, mouse
# Conditions: for inhibition ELISA signal, high / inhibition ELISA signal, low / inhibition ELISA signal, 2 μg peptide / inhibition ELISA signal, 20 μg peptide: 2.5 ng mAb Frida; for inhibition ELISA signal, high / inhibition ELISA signal, low / inhibition ELISA signal, first value column / inhibition ELISA signal, second value column / inhibition ELISA signal, 2 μg peptide / inhibition ELISA signal, 20 μg peptide: detection αIgG1; for inhibition ELISA signal, high: high peptide amount; for inhibition ELISA signal, low: low peptide amount; for inhibition ELISA signal, first value column / inhibition ELISA signal, second value column: FIG. 18b, column without head; for inhibition ELISA signal, 2 μg peptide / inhibition ELISA signal, 20 μg peptide: coat 1 μM peptide; for inhibition in in vitro competition ELISA, mAb “Frida” (in words): monoclonal antibodies “Frida” and, where stated, “James”
# Protocol: Different amounts of peptides (2 and 20 μg, as indicated in the respective figures) derived from Phage Display were incubated with the monoclonal antibody that was used for the screening procedure. Peptides diminishing subsequent binding of the antibody to the original CETP epitope (C-terminal 16 amino acids of CETP protein) coated on ELISA plates were considered as inhibiting. (Results see i.a. FIGS. 19a to 19c)
# [1] = FIG. 18a, coat 1 μM 4073 peptide
substance,measurement,setting,value
C-AAAPAHLLVDAAQAAA (N-terminal Cys; CETP mimotope) [p4437],"inhibition ELISA signal, high","FIG. 18c, coat 1 μM 4073",1.674
same,"inhibition ELISA signal, low","FIG. 18c, coat 1 μM 4073",1.84
C-AAFAAHLLADFLQAAA (N-terminal Cys; CETP mimotope) [p4436],"inhibition ELISA signal, high","FIG. 18c, coat 1 μM 4073",1.691
same,"inhibition ELISA signal, low","FIG. 18c, coat 1 μM 4073",1.632
C-AAFPAHAAADFLQALA (N-terminal Cys; CETP mimotope) [p4435],"inhibition ELISA signal, high","FIG. 18c, coat 1 μM 4073",1.969
same,"inhibition ELISA signal, low","FIG. 18c, coat 1 μM 4073",1.281
C-AAFPAHLLADAAQALA (N-terminal Cys; CETP mimotope) [p4434],"inhibition ELISA signal, high","FIG. 18c, coat 1 μM 4073",1.461
same,"inhibition ELISA signal, low","FIG. 18c, coat 1 μM 4073",1.74
C-DFGFPAHVFIDWLQSLN (N-terminal cysteine; CETP mimotope) [p4818],"inhibition ELISA signal, first value column",coat 1 μM 4073 peptide,0.332
same,"inhibition ELISA signal, second value column",coat 1 μM 4073 peptide,0.091
C-DFGFPAHVFIDWLQSLS (N-terminal cysteine; CETP mimotope) [p4480],"inhibition ELISA signal, high",[1],0.103
same,"inhibition ELISA signal, low",[1],0.521
C-DFGFPAHVLIDWLQSLN (N-terminal cysteine; CETP mimotope) [p4990],"inhibition ELISA signal, first value column",coat 1 μM 4073 peptide,0.263
same,"inhibition ELISA signal, second value column",coat 1 μM 4073 peptide,0.073
C-DFGFPAHVTIDWLQSLN (N-terminal cysteine; CETP mimotope) [p4989],"inhibition ELISA signal, first value column",coat 1 μM 4073 peptide,0.932
same,"inhibition ELISA signal, second value column",coat 1 μM 4073 peptide,0.274
C-DFGFPSHLIIDWLQSLS (N-terminal cysteine; CETP mimotope) [p4642],"inhibition ELISA signal, first value column",coat 1 μM 4073 peptide,0.171
same,"inhibition ELISA signal, second value column",coat 1 μM 4073 peptide,0.082
C-FGFPAHFSIDWLQSLS (N-terminal cysteine; CETP mimotope) [p4475],"inhibition ELISA signal, high",[1],1.429
same,"inhibition ELISA signal, low",[1],2.211
C-FGFPAHVFIDWLQ (N-terminal cysteine; CETP mimotope) [p4631],"inhibition ELISA signal, first value column",coat 1 μM 4073 peptide,2.111
same,"inhibition ELISA signal, second value column",coat 1 μM 4073 peptide,2.147
C-FGFPAHVFIDWLQSLN (N-terminal cysteine; CETP mimotope) [p4474],"inhibition ELISA signal, high",[1],0.179
same,"inhibition ELISA signal, low",[1],1.452
C-FGFPAHVFIDWLQSLS [p4361],"inhibition ELISA signal, 2 μg peptide",FIG. 10a,0.82
same,"inhibition ELISA signal, 20 μg peptide",FIG. 10a,0.16
C-FGFPAHVSFDWLQSLS (N-terminal cysteine; CETP mimotope) [p4476],"inhibition ELISA signal, high",[1],1.417
same,"inhibition ELISA signal, low",[1],2.000
C-FGFPAHVSIDWLQSLS (N-terminal cysteine; CETP mimotope) [Fr12/3/84 ext2],"inhibition in in vitro competition ELISA, mAb “Frida” (in words)",,significant inhibition; also recorded: Strongly inhibiting
C-FGFPAHVYIDWLQ (N-terminal cysteine; CETP mimotope) [p4630],"inhibition ELISA signal, first value column",coat 1 μM 4073 peptide,2.131
same,"inhibition ELISA signal, second value column",coat 1 μM 4073 peptide,2.115
C-FGFPAHVYIDWLQSLS [p4362],"inhibition ELISA signal, 2 μg peptide",FIG. 10a,0.75
same,"inhibition ELISA signal, 20 μg peptide",FIG. 10a,0.15
C-FGFPEHLLVDFLQS [reference compound],"inhibition in in vitro competition ELISA, mAb “Frida” (in words)",,not inhibiting in vitro
C-FGFPEHLLVDFLQSL (N-terminal Cys) [reference compound],"inhibition in in vitro competition ELISA, mAb “Frida” (in words)",,inhibiting in vitro
"C-FGFPEHLLVDFLQSLS [p4073, reference compound]","inhibition ELISA signal, 2 μg peptide",FIG. 10a,0.44
same,"inhibition ELISA signal, 20 μg peptide",FIG. 10a,0.1
same,"inhibition ELISA signal, 2 μg peptide",FIG. 10b,0.64
same,"inhibition ELISA signal, 20 μg peptide",FIG. 10b,0.15
same,"inhibition ELISA signal, high",[1],0.094
same,"inhibition ELISA signal, low",[1],0.537
same,"inhibition ELISA signal, high","FIG. 18c, coat 1 μM 4073",0.088
same,"inhibition ELISA signal, low","FIG. 18c, coat 1 μM 4073",0.554
same,"inhibition in in vitro competition ELISA, mAb “Frida” (in words)",,inhibiting in vitro
C-FGFPEHVFIDWLQSLS (N-terminal cysteine; CETP mimotope) [p4477],"inhibition ELISA signal, high",[1],0.116
same,"inhibition ELISA signal, low",[1],0.808
C-FGFPQHLFTDWLQSLS (N-terminal cysteine; CETP mimotope) [p4481],"inhibition ELISA signal, high",[1],0.156
same,"inhibition ELISA signal, low",[1],0.551
C-FGFPSHIIIDWLQSLS (N-terminal Cys; CETP mimotope) [p4432],"inhibition ELISA signal, high","FIG. 18c, coat 1 μM 4073",0.096
same,"inhibition ELISA signal, low","FIG. 18c, coat 1 μM 4073",0.635
C-FGFPSHLIIDWLQSLS (N-terminal Cys; CETP mimotope) [p4325],"inhibition ELISA signal, 2 μg peptide",FIG. 10b,0.42
same,"inhibition ELISA signal, 20 μg peptide",FIG. 10b,0.1
C-FGFPSHLIIEWLQSLS (N-terminal Cys; CETP mimotope) [p4433],"inhibition ELISA signal, high","FIG. 18c, coat 1 μM 4073",0.672
same,"inhibition ELISA signal, low","FIG. 18c, coat 1 μM 4073",1.114
C-FKPAHVFIDWLQSLS (N-terminal cysteine; CETP mimotope) [p4478],"inhibition ELISA signal, high",[1],1.206
same,"inhibition ELISA signal, low",[1],2.231
C-FPEHLLVDFLQSL (N-terminal Cys) [reference compound],"inhibition in in vitro competition ELISA, mAb “Frida” (in words)",,not inhibiting in vitro
C-FPEHLLVDFLQSLS (N-terminal Cys) [reference compound],"inhibition in in vitro competition ELISA, mAb “Frida” (in words)",,inhibiting in vitro
C-GFKPAHVFIDWLQSLS (N-terminal cysteine; CETP mimotope) [p4479],"inhibition ELISA signal, high",[1],1.591
same,"inhibition ELISA signal, low",[1],2.165
C-GFPEHLLVDFLQSLS (N-terminal Cys) [reference compound],"inhibition in in vitro competition ELISA, mAb “Frida” (in words)",,inhibiting in vitro
C-PAHVFIDWLQ (N-terminal cysteine; CETP mimotope) [p4820],"inhibition ELISA signal, first value column",coat 1 μM 4073 peptide,2.310
same,"inhibition ELISA signal, second value column",coat 1 μM 4073 peptide,2.374
C-PAHVYIDWLQSLS (N-terminal cysteine; CETP mimotope) [p4629],"inhibition ELISA signal, first value column",coat 1 μM 4073 peptide,0.313
same,"inhibition ELISA signal, second value column",coat 1 μM 4073 peptide,0.118
C-PEHLLVDFLQSLS (N-terminal Cys) [reference compound],"inhibition in in vitro competition ELISA, mAb “Frida” (in words)",,evtl. slightly inhibiting in vitro
C-PSHLIIDWLQ (N-terminal cysteine; CETP mimotope) [p4819],"inhibition ELISA signal, first value column",coat 1 μM 4073 peptide,2.226
same,"inhibition ELISA signal, second value column",coat 1 μM 4073 peptide,2.158
FGFPAHVFIDWLQSLN-C [p5068],"inhibition ELISA signal, first value column",coat 1 μM 4073 peptide,0.757
same,"inhibition ELISA signal, second value column",coat 1 μM 4073 peptide,0.271
FGFPAHVYIDWLQSLS-C (C-terminal cysteine; CETP mimotope) [p5067],"inhibition ELISA signal, first value column",coat 1 μM 4073 peptide,0.563
same,"inhibition ELISA signal, second value column",coat 1 μM 4073 peptide,0.217
"FGFPEHLLVDFLQSLS-C (C-terminal Cys; CETP mimotope) [p1208, positive control peptide, reference compound]","inhibition ELISA signal, high",[1],0.093
same,"inhibition ELISA signal, low",[1],0.712
same,"inhibition ELISA signal, first value column",coat 1 μM 4073 peptide,0.264
same,"inhibition ELISA signal, second value column",coat 1 μM 4073 peptide,0.079
same,"inhibition ELISA signal, high","FIG. 18c, coat 1 μM 4073",0.101
same,"inhibition ELISA signal, low","FIG. 18c, coat 1 μM 4073",0.942
